Here are results for two compounds from ChEMBL document CHEMBL5212743, “Selectivity Literature for EUbOPEN Chemogenomics Library wave 3” (2023).

SMILES strings stand for the structures.

The target in experiment [1] is T1, Serine/threonine-protein kinase Chk2 (Homo sapiens, UniProt O96017). Kind of experiment: Selectivity interaction (NanoBRET assay (HEK293T cells)) EUB0000712a CHEK2.
Experiment [2] deals with T1, Serine/threonine-protein kinase Chk2. As to the kind of experiment: Selectivity interaction (KinomeScan (DiscoverX)) EUB0000712a CHEK2. The settings on record: at 1 µM.
The target in experiment [3] is T2, Serine/threonine-protein kinase 38-like (Homo sapiens, UniProt Q9Y2H1). Kind of experiment: Selectivity interaction (KinomeScan (DiscoverX)) EUB0000712a STK38L. Conditions: at 1 µM.
Experiment [4] addresses T3, Mu-type opioid receptor (Homo sapiens, UniProt P35372). As to the kind of experiment: Selectivity interaction (GPCR panel (PDSP screen)) EUB0000712a OPRM1. Conditions: at 10 µM.
Experiment [5] addresses Receptor-interacting serine/threonine-protein kinase 2 (Homo sapiens) (UniProt O43353). Kind of experiment: Selectivity interaction (KinomeScan (DiscoverX)) EUB0000712a RIPK2. Conditions: at 1 µM.
In experiment [6] the target is Phosphatidylinositol 4,5-bisphosphate 3-kinase catalytic subunit alpha isoform (Homo sapiens, UniProt P42336). As to the kind of experiment: Selectivity interaction (KinomeScan (DiscoverX)) EUB0000712a PIK3CA. The settings on record: at 1 µM.
In experiment [7] the target is T2, Serine/threonine-protein kinase 38-like. As to the kind of experiment: Selectivity interaction (NanoBRET assay (HEK293T cells)) EUB0000712a STK38L.
The target in experiment [8] is Serine/threonine-protein kinase B-raf (Homo sapiens, UniProt P15056). Kind of experiment: Selectivity interaction (NanoBRET assay (HEK293T cells)) EUB0000712a BRAF. Background: Bioluminescence resonance energy transfer reports proximity on the nanometre scale.
Experiment [9] deals with T4, Alpha-1A adrenergic receptor (Homo sapiens, UniProt P35348).
T4 sequence (P35348 whole entry): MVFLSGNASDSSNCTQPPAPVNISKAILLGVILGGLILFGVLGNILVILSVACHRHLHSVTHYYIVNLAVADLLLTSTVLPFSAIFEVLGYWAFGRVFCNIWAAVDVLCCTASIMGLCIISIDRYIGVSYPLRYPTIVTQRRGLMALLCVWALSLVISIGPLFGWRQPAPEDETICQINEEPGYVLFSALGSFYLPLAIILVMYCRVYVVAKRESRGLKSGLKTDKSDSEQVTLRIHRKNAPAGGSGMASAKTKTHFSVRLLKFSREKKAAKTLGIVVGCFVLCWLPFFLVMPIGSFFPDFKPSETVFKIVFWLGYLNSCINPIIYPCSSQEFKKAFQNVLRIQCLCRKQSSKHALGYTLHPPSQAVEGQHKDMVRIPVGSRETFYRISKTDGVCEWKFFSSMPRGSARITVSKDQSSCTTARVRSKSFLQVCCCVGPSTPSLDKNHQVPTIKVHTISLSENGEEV
Kind of experiment: Selectivity interaction (GPCR panel (PDSP screen)) EUB0000705a ADRA1A.

The target of experiment [10] is 5-hydroxytryptamine receptor 1A (Homo sapiens, UniProt P08908). As to the kind of experiment: Selectivity interaction (GPCR panel (PDSP screen)) EUB0000705a HTR1A.
Experiment [11] addresses T5, Alpha-2C adrenergic receptor (Homo sapiens, UniProt P18825).
T5 sequence (P18825 whole entry): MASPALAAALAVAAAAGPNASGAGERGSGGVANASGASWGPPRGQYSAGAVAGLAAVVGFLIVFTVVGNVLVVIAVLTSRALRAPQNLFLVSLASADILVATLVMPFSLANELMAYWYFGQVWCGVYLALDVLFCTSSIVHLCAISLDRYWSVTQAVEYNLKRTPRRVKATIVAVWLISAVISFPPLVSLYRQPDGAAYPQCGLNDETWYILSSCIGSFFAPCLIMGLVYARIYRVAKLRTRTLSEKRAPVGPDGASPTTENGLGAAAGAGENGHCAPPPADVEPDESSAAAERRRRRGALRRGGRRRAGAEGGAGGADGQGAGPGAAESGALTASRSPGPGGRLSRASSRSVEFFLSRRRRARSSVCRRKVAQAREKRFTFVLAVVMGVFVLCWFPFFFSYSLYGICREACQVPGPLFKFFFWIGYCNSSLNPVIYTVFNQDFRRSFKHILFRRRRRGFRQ
Kind of experiment: Selectivity interaction (GPCR panel (PDSP screen)) EUB0000705a ADRA2C.

Experiment [12] concerns the target T6, Leucine-rich repeat serine/threonine-protein kinase 2 (Homo sapiens, UniProt Q5S007). Kind of experiment: Selectivity interaction (NanoBRET assay (HEK293T cells)) EUB0000705a LRRK2.
Experiment [13] concerns the target T6, Leucine-rich repeat serine/threonine-protein kinase 2. As to the kind of experiment: Selectivity interaction (KinomeScan (DiscoverX)) EUB0000705a LRRK2. The settings on record: at 1 µM.
Experiment [14] deals with T7, Alpha-1D adrenergic receptor (Homo sapiens, UniProt P25100).
T7 sequence (P25100 whole entry): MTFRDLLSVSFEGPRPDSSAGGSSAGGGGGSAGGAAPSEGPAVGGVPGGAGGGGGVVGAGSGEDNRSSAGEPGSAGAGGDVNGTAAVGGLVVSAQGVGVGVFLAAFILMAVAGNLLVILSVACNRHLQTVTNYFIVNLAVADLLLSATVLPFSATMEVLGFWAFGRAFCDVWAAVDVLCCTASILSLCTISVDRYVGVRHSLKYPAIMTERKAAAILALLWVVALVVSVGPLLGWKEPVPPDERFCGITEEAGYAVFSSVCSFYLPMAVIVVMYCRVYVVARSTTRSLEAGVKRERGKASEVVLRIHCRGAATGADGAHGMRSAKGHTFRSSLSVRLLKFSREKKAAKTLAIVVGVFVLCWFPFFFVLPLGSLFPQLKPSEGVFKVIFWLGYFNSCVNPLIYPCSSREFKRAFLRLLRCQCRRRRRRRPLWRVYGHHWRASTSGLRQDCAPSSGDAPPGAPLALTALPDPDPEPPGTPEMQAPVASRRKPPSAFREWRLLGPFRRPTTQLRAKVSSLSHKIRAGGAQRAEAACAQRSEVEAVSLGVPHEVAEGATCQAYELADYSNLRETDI
Kind of experiment: Selectivity interaction (GPCR panel (PDSP screen)) EUB0000705a ADRA1D.

Experiment [15] concerns the target T3, Mu-type opioid receptor. Kind of experiment: Selectivity interaction (GPCR panel (PDSP screen)) EUB0000705a OPRM1.
Experiment [16] concerns the target Beta-3 adrenergic receptor (Homo sapiens, UniProt P13945). Kind of experiment: Selectivity interaction (GPCR panel (PDSP screen)) EUB0000705a ADRB3.

T1 sequence (O96017 whole entry): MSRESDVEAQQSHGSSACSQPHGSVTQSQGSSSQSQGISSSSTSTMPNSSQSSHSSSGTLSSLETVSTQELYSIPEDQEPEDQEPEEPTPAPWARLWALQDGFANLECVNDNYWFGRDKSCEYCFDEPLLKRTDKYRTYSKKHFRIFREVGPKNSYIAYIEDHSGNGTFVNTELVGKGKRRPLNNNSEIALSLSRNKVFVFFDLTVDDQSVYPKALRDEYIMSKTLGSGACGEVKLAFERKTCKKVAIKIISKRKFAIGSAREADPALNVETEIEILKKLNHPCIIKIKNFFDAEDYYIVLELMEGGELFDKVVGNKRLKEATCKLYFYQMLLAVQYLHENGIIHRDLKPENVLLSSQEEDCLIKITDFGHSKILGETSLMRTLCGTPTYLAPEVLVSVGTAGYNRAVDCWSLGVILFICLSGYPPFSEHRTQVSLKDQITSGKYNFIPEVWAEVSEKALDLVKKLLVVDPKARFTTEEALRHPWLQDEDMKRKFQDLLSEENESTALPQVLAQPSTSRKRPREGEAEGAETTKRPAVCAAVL
T6 sequence (Q5S007 whole entry): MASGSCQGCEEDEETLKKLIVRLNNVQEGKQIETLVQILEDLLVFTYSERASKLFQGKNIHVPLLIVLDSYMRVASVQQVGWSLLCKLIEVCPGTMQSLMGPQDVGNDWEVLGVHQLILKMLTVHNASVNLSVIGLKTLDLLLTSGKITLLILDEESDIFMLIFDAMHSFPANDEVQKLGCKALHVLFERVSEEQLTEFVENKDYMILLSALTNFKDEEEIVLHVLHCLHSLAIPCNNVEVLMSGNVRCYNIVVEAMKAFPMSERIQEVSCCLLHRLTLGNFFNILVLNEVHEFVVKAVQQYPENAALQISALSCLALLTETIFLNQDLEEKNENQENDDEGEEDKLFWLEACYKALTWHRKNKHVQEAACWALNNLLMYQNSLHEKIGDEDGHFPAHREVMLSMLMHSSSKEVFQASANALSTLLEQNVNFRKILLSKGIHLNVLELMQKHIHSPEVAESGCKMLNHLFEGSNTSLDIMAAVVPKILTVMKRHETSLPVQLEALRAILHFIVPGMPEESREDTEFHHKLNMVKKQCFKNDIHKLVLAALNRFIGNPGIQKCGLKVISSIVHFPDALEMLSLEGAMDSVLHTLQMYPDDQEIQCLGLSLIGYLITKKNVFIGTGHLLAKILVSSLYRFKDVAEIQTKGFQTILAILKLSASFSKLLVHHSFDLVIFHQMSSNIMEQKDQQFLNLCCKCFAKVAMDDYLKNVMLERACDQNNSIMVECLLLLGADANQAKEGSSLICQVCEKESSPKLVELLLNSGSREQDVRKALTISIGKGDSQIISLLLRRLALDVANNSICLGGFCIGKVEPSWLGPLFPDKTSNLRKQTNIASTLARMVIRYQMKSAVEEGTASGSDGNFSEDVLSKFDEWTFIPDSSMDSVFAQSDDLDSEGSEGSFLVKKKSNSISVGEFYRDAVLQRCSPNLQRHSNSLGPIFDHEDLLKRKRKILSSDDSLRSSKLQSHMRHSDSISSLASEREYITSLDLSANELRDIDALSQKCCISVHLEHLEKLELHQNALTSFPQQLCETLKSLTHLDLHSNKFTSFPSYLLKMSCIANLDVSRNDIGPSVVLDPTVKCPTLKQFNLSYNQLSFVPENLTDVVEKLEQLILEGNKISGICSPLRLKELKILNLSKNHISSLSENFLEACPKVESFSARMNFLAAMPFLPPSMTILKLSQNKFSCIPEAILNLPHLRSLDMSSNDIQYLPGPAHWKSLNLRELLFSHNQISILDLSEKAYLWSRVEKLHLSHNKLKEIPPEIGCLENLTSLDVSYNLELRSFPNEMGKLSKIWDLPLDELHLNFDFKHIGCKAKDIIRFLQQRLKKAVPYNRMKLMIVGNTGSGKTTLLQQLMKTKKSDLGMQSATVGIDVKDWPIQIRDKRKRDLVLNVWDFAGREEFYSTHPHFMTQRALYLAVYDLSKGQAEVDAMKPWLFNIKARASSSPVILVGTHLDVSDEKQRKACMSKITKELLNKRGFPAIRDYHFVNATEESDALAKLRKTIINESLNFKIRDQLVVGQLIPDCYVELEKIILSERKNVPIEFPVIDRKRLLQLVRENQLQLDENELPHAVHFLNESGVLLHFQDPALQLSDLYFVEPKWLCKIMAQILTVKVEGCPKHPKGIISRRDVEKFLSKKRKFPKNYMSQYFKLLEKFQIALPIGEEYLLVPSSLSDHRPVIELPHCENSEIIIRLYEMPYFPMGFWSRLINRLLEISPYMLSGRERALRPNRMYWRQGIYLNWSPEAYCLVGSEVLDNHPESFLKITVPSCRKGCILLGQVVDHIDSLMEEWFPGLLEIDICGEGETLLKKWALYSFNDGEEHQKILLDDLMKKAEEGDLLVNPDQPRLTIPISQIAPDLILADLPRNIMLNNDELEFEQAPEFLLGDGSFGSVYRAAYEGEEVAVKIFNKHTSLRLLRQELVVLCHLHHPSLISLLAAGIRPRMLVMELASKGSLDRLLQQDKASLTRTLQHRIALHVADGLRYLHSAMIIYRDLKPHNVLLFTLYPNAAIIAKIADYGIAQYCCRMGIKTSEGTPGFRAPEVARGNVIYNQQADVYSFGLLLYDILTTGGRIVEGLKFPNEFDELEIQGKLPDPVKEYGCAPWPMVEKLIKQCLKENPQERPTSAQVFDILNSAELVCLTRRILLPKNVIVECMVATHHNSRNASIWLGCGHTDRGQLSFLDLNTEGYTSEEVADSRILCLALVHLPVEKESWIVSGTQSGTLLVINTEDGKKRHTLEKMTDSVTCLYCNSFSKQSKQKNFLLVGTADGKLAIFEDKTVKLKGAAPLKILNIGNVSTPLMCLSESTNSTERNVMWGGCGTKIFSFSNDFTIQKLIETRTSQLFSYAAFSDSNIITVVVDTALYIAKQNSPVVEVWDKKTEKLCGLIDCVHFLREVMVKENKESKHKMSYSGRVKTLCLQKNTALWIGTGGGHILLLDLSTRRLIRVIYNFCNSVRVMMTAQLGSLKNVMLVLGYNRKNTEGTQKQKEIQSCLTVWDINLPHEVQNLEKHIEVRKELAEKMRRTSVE
T3 sequence (P35372 whole entry): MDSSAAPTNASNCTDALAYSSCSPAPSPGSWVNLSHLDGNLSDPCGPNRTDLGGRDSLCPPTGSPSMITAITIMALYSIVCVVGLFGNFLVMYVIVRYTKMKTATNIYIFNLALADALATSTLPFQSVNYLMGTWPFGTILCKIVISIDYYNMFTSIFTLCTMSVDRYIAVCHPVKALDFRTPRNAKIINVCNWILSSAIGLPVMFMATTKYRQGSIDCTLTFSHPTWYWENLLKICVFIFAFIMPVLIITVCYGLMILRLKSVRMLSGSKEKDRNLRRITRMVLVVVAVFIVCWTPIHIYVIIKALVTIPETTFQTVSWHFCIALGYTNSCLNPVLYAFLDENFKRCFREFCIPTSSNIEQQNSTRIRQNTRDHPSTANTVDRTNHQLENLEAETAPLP
Sequence of Phosphatidylinositol 4,5-bisphosphate 3-kinase catalytic subunit alpha isoform (P42336 whole entry, canonical isoform): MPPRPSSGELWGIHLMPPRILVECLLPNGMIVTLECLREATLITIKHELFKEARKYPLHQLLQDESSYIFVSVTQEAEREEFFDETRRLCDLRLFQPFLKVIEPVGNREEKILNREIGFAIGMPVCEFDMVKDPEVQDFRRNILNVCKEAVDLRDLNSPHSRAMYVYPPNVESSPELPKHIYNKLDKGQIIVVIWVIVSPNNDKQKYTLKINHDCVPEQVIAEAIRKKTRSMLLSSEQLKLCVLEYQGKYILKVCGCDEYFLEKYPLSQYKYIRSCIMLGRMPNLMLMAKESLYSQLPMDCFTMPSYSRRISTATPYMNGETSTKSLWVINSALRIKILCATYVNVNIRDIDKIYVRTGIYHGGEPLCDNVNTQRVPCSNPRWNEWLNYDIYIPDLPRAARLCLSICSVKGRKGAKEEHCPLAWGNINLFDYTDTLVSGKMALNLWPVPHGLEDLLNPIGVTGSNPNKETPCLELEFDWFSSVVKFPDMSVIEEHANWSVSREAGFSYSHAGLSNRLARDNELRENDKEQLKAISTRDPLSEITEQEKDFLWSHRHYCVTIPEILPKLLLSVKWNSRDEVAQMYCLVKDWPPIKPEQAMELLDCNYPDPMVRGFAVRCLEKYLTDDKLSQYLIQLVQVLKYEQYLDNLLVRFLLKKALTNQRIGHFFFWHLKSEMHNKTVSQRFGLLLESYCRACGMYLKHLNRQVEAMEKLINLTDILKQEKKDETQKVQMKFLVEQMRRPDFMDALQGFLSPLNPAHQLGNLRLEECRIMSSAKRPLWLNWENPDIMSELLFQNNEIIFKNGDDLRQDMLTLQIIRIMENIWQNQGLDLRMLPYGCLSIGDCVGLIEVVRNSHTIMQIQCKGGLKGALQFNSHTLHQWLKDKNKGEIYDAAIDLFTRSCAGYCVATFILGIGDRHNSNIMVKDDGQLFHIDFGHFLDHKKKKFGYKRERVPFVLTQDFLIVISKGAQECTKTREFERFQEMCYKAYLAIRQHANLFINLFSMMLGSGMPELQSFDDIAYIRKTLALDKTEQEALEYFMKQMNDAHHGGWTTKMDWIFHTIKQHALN
Sequence of 5-hydroxytryptamine receptor 1A (P08908 whole entry): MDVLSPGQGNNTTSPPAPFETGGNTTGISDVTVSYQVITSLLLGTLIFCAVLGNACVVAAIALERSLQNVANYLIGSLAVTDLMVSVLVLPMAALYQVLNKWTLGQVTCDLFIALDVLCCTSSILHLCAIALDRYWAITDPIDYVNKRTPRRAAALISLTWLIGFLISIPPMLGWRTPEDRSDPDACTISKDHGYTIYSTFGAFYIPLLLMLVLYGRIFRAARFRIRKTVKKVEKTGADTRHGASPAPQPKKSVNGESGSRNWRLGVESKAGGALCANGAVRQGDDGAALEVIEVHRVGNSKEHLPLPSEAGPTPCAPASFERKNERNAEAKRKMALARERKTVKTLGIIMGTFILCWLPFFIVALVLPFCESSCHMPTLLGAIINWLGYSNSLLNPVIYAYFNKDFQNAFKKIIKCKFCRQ

What is called IC50 is the concentration needed to halve the response being measured. In the case of `CS(=O)(=O)N1CCCC(NC(=O)[C@H](CCC2CCCCC2)NC(=O)c2ccc(CNC(=O)c3cnc4ccccn34)cc2)C1` (stereo partly specified) [SR-302], the IC50 in experiment [1], in experiment [7] and in [8] was more than 25 µM each time. Further, the % of control amounted to 37% in [2], 40% in experiment [3], 30% in experiment [5] and 37% in experiment [6]. This compound came in with a % of inhibition in experiment [4] of 45.3%.
By Ki is commonly meant a dissociation constant, usually derived from enzyme kinetics or from competition with a known ligand. Read a high Ki as a looser hold on the target. Regarding `CN1CCN(C(=O)C(C)(C)c2ccc(C(=O)Nc3cn4cc(-c5cc(C(C)(C)C)cc(C(C)(C)C)c5)ccc4n3)cc2)CC1` [T3-CLK-N], the Ki was 1670 nM in experiment [9]; 2180 nM in experiment [10]; more than 10 µM in experiment [11]; more than 10 µM in experiment [14]; 4.52 µM in experiment [15]; more than 10 µM in [16]. In [12], this compound came in with an IC50 of more than 10 µM. The same compound gave a % of control in experiment [13] of more than 95%.
